Data as given in ChEMBL document CHEMBL1139406, “Anti-HIV-1 activity of phloroglucinol derivative, 6,6'-bieckol, from Ecklonia cava” (Bioorg Med Chem, 2008).
One block for each compound: values may come before it. Calls of active or inactive are those of the source. No cut-off for these calls is given here.

Experiments:
[1] = test system: Human immunodeficiency virus 1; assay: Antiviral activity against HIV1 3B in human H9 cells assessed as inhibition of p24 antigen production at 5 uM by ELISA; type: functional, organism-based
Protease = Protease (Human immunodeficiency virus 1, UniProt Q9YQ12); assay: (§1) Inhibition of HIV1 3B recombinant protease
Chain of Protease (Q9YQ12 whole entry): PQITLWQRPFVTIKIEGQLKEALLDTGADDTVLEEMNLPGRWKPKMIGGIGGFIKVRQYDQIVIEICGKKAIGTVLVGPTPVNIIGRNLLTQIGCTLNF

[2] = biological target: Human immunodeficiency virus type 1 reverse transcriptase (Human immunodeficiency virus 1, UniProt Q72547); assay: Inhibition of HIV1 3B reverse transcriptase activity
[3] = test system: Human immunodeficiency virus 1; assay: Antiviral activity against HIV1 3B in human CEM-SS cells assessed as inhibition of viral-induced lytic effect after 7 days by MTT assay; type: functional, organism-based; details: Human immunodeficiency virus 1, 3B, 168 h
[4] = test system: Human immunodeficiency virus 1; assay: Antiviral activity against HIV1 3B in human CEM-SS cells assessed as inhibition of viral-induced lytic effect at 25 uM after 7 days by MTT assay; type: functional; parameters: scale not given: the % may be the effect or the level left
[5] = test system: Human immunodeficiency virus 1; assay: Antiviral activity against HIV1 3B in human H9 cells assessed as inhibition of p24 antigen production by ELISA; type: functional, organism-based; details: Human immunodeficiency virus 1, 3B
[6] = biological target: Human immunodeficiency virus type 1 reverse transcriptase (Human immunodeficiency virus 1) (UniProt Q72547); assay: Inhibition of HIV1 3B reverse transcriptase activity at 1 uM
[7] = biological target: Human immunodeficiency virus type 1 reverse transcriptase (Human immunodeficiency virus 1) (UniProt Q72547); assay: Inhibition of HIV1 3B reverse transcriptase activity at 10 uM
[8] = test system: Human immunodeficiency virus 1; assay: Antiviral activity against HIV1 3B in human C8166 co-cultivated with H9 cells assessed as inhibition of cell-cell fusion after 72 hrs; type: functional, organism-based
[9] = test system: Human immunodeficiency virus 1; assay: Antiviral activity against HIV1 3B in human C8166 co-cultivated with H9 cells assessed as inhibition of cell-virus fusion after 72 hrs; type: functional, organism-based
[10] = test system: Human immunodeficiency virus 1; assay: Antiviral activity against HIV13B in human C8166 co-cultivated with H9 cells assessed as inhibition of viral-induced syncytia formation at 25 uM after 72 hrs; type: functional, 3B; parameters: scale not given: the % may be the effect or the level left
[11] = biological target: Protease (Human immunodeficiency virus 1) (UniProt Q9YQ12); assay: as §1
Chain of Protease (Human immunodeficiency virus 1) (Q9YQ12 as listed by the source): as the sequence (Q9YQ12 whole entry) above

[12] = test system: Human immunodeficiency virus 1; assay: Antiviral activity against HIV1 3B in human H9 cells assessed as inhibition of p55 gag protein production after 4 days by Western blot analysis; type: functional, organism-based
[13] = test system: Human immunodeficiency virus 1; assay: Antiviral activity against HIV1 3B in human H9 cells assessed as inhibition of p41 gag protein production after 4 days by Western blot analysis; type: functional, organism-based
[14] = Cytotoxicity against human CEM-SS cells after 72 hrs by MTT assay; type: cell-based
[15] = test system: Human immunodeficiency virus 1; assay: Antiviral activity against HIV1 3B in human C8166 cells assessed as inhibition of viral-induced syncytia formation after 72 hrs; type: functional, organism-based; details: Human immunodeficiency virus 1, 3B, C8166, 72 h
[16] = test system: Human immunodeficiency virus 1; assay: Antiviral activity against HIV1 3B in human C8166 cells assessed as inhibition of viral-induced syncytia formation at 25 uM after 72 hrs; type: functional; parameters: scale not given: the % may be the effect or the level left
[17] = test system: Human immunodeficiency virus 1; assay: Antiviral activity against HIV1 3B in human H9 cells assessed as inhibition of p24 gag protein production after 4 days by Western blot analysis; type: functional, organism-based
[18] = Therapeutic index, ratio of CC50 for human CEM-SS cells to IC50 for HIV1 induced lytic effect; type: cell-based; details: read-out: TI
CEM-SS = assay: Cytotoxicity against human CEM-SS cells up to 500 by MTT assay; type: cell-based
[19] = test system: Human immunodeficiency virus 1; assay: Antiviral activity against HIV1 3B in human H9 cells assessed as inhibition of p24 antigen production at 10 uM by ELISA; type: functional; details: Human immunodeficiency virus 1, 3B
[20] = test system: Human immunodeficiency virus 1; assay: Antiviral activity against HIV1 3B in human H9 cells assessed as inhibition of p24 antigen production at 25 uM by ELISA; type: functional, organism-based

Compound: Cc1cn([C@H]2C[C@H](N=[N+]=[N-])[C@@H](CO)O2)c(=O)[nH]c1=O
Activity [1]: Active

IC50 (Protease): 81500 nM | EC50 [2]: 510 nM
Compound: Oc1cc(O)cc(Oc2c(O)cc(O)c3c2Oc2c(cc(O)c(-c4c(O)cc5c(c4O)Oc4c(Oc6cc(O)cc(O)c6)c(O)cc(O)c4O5)c2O)O3)c1

EC50 [5]: 1260 nM | inhibition [6]: 50.5% | inhibition [7]: 96.3% | Activity [11]: inactive | EC50 [2]: 1070 nM | EC50 [15]: 1720 nM
Compound: Oc1cc(O)cc(Oc2c(O)cc(O)c3c2Oc2c(O)cc(O)c(-c4c(O)cc(O)c5c4Oc4c(O)cc(O)c(Oc6cc(O)cc(O)c6)c4O5)c2O3)c1
EC50 [3]: 1230 nM | Activity [4]: >96% | Activity [8]: Active | Activity [9]: Active | Activity [10]: 80% | Activity [12]: Active | Activity [13]: Active | CC50 at 72 h [14]: 484000 nM | Activity [16]: 88% | Activity [17]: Dose-dependent effect | selectivity ratio [18]: 393 | Activity (CEM-SS): Non-toxic | inhibition at 10 µM [19]: 90% | Activity [20]: Active
